In ChEMBL document CHEMBL3882242, “Synthesis and biological evaluation of analogs of the antimitotic marine natural product curacin A” (2002):
Activity calls are given as the source filed them. The rule behind the calls is not given here.

Assays:
Tubulin (Bos taurus) [1] = biological target: T1, Tubulin (Bos taurus) (UniProt Q6B856+Q862L2+Q862F3); experiment: Inhibition of GTP/glutamate-induced bovine brain tubulin polymerization at 5 uM by […]
Tubulin (Bos taurus) [2] = biological target: T1, Tubulin (Bos taurus); experiment: Inhibition of [3H]colchicin binding to bovine brain tubulin incubated at 50 uM and 30 degreeC for 10 mins in presence of GTP by scintillation spectroscopic method
Tubulin (Bos taurus) [3] = biological target: T1, Tubulin (Bos taurus); experiment: Inhibition of [3H]colchicin binding to bovine brain tubulin incubated at 5 uM and 30 degreeC for 10 mins in presence of GTP by scintillation spectroscopic method
[4] = Growth inhibition of human MDA-MB-231 cells incubated for 48 hrs by MTS assay; format: functional; settings: MDA-MB-231, 48 h
MCF7 [5] = experiment: Antimitotic activity in human MCF7 cells assessed as increase in core histone phosphorylation at 7.8 to 1000 nM measured after 14 to 16 hrs by immunohistochemical analysis; format: functional, cell-based
MCF7 [6] = experiment: Antimitotic activity in human MCF7 cells assessed as disruption of microtubules at 7.8 to 1000 nM measured after 14 to 16 hrs by immunohistochemical analysis; format: functional, cell-based
Tubulin (Bos taurus) [7] = biological target: T1, Tubulin (Bos taurus); experiment: Inhibition of [3H]colchicine binding to bovine brain tubulin at 5 uM relative to control
MCF7 [8] = experiment: Antimitotic activity in human MCF7 cells assessed as increase in mitotic index at 7.8 to 1000 nM measured after 14 to 16 hrs by immunohistochemical analysis; format: functional, cell-based
[9] = Growth inhibition of human 2008 cells incubated for 48 hrs by MTS assay; format: functional; settings: Homo sapiens, 2008, 48 h
MCF7 [10] = experiment: Antimitotic activity in human MCF7 cells assessed as induction of cell rounding at 7.8 to 1000 nM measured after 14 to 16 hrs by immunohistochemical analysis; format: functional, cell-based
MCF7 [11] = experiment: Antimitotic activity in human MCF7 cells assessed as chromatin condensation at 7.8 to 1000 nM measured after 14 to 16 hrs by immunohistochemical analysis; format: functional, cell-based
[12] = Growth inhibition of human PC3 cells incubated for 48 hrs by MTS assay; format: functional; settings: PC-3, 48 h
[13] = Growth inhibition of human PC3 cells incubated for 96 hrs by MTS assay; format: functional; settings: PC-3, 96 h
[14] = Growth inhibition of human MDA-MB-231 cells incubated for 96 hrs by MTS assay; format: functional; settings: MDA-MB-231, 96 h
[15] = Growth inhibition of human 2008 cells incubated for 96 hrs by MTS assay; format: functional; settings: Homo sapiens, 2008, 96 h
Tubulin (Bos taurus) [16] = biological target: T1, Tubulin (Bos taurus); experiment: Inhibition of [3H]colchicine binding to bovine brain tubulin at 50 uM relative to control

C=CC[C@@H](CC/C(C)=C/C=C/CC/C=C\c1csc(C(C)(C)C)n1)OC
inhibition (Tubulin (Bos taurus) [1]): 100%
inhibition (Tubulin (Bos taurus) [2]): 43%
inhibition (Tubulin (Bos taurus) [3]): 38%

COc1cc(/C=C\CC/C=C/C=C(\C)CCC(O)c2cc3ccccc3s2)cc(OC)c1OC (stereo not given)
GI50 [4]: 83 to 230 nM
Activity (MCF7 [5]): Active
Activity (MCF7 [6]): Active
inhibition (Tubulin (Bos taurus) [7]): 30.2%
inhibition (Tubulin (Bos taurus) [1]): > 100%
Activity (MCF7 [8]): Active
GI50 [9]: 360 to 380 nM
Activity (MCF7 [10]): Active
Activity (MCF7 [11]): Active
GI50 [12]: 620 to 875 nM
GI50 [13]: 1220 nM
GI50 [14]: 1280 nM
GI50 [15]: 235 nM

COc1cc(/C=C\CC/C=C/C=C(\C)CCC(O)c2cc3ccccc3o2)cc(OC)c1OC (stereo not given)
GI50 [4]: 86 to 120 nM
inhibition (Tubulin (Bos taurus) [7]): 12.5%
inhibition (Tubulin (Bos taurus) [1]): 74.6%
inhibition (Tubulin (Bos taurus) [16]): 68.7%
GI50 [12]: 310 to 596 nM
GI50 [13]: 1120 nM
GI50 [14]: 204 nM
GI50 [15]: 199 nM

C=CC[C@@H](CC/C(C)=C/C=C/CC/C=C\[C@@H]1COC(/C=C/c2ccccc2)=N1)OC
inhibition (Tubulin (Bos taurus) [3]): 9%

C=CC[C@@H](CC/C(C)=C/C=C/CC/C=C\[C@@H]1CSC(C(C)(C)C)=N1)OC
inhibition (Tubulin (Bos taurus) [1]): 100%
inhibition (Tubulin (Bos taurus) [2]): 63%
inhibition (Tubulin (Bos taurus) [3]): 35%

COc1cc(/C=C\CC/C=C/C=C(\C)CCC(O)c2ccco2)cc(OC)c1OC (stereo not given)
Activity (MCF7 [8]): Active

COc1ccc(/C=C\CC/C=C/C=C(\C)CCC(O)c2cc(OC)ccc2OC)c(OC)c1 (stereo not given)
GI50 [12]: > 50000 nM
GI50 [13]: > 50000 nM

COc1ccc(/C=C\CC/C=C/C=C(\C)CCC(O)c2ccccc2OC)c(OC)c1 (stereo not given)
GI50 [4]: > 50000 nM
GI50 [12]: > 50000 nM
GI50 [13]: > 50000 nM

COc1cc(/C=N\OC[C@@H]2C[C@H]2CCC(C)c2cccs2)cc(OC)c1OC (stereo not given in full)
GI50 [4]: > 50000 nM
GI50 [9]: > 50000 nM
inhibition (Tubulin (Bos taurus) [2]): 18%
inhibition (Tubulin (Bos taurus) [3]): -10%
GI50 [12]: > 50000 nM
GI50 [13]: > 50000 nM
GI50 [14]: > 50000 nM
GI50 [15]: > 50000 nM

COc1ccccc1C(O)CC/C(C)=C/C=C/CC/C=C\c1cc(OC)c(OC)c(OC)c1 (stereo not given)
GI50 [4]: 243 to 340 nM
inhibition (Tubulin (Bos taurus) [7]): 5%
inhibition (Tubulin (Bos taurus) [1]): > 100%
Activity (MCF7 [8]): Active
inhibition (Tubulin (Bos taurus) [16]): 73%
GI50 [9]: 314 to 330 nM
GI50 [12]: 620 to 933 nM
GI50 [14]: 221 nM
GI50 [15]: 268 nM

C=CC[C@@H](CC/C(C)=C/C=C/CC/C=C\[C@@H]1COC(C(C)(C)C)=N1)OC
inhibition (Tubulin (Bos taurus) [1]): 0%
inhibition (Tubulin (Bos taurus) [2]): 80%
inhibition (Tubulin (Bos taurus) [3]): 14%

COc1ccc(/C=C\CC/C=C/C=C(\C)CCC(O)c2ccco2)c(OC)c1 (stereo not given)
GI50 [12]: > 50000 nM
GI50 [13]: > 50000 nM

C=CC[C@@H](CC[C@@]1(C)C[C@H]1[C@H]1C[C@@H]1CC/C=C\[C@@H]1CSC([C@@H]2C[C@@H]2C)=N1)OC
GI50 [4]: > 50000 nM
inhibition (Tubulin (Bos taurus) [1]): 0%
GI50 [9]: > 50000 nM
inhibition (Tubulin (Bos taurus) [3]): 9%
GI50 [12]: > 50000 nM
GI50 [13]: > 50000 nM
GI50 [14]: > 50000 nM
GI50 [15]: > 50000 nM

COc1ccc(/C=C\CC/C=C/C=C(\C)CCC(O)c2cc3ccccc3s2)c(OC)c1 (stereo not given)
GI50 [4]: > 50000 nM
inhibition (Tubulin (Bos taurus) [16]): < 26.4%
GI50 [12]: > 50000 nM
GI50 [13]: > 50000 nM

COc1cc(/C=C\CC/C=C/C=C(\C)CCC(O)c2cccs2)cc(OC)c1OC (stereo not given)
GI50 [4]: 151 to 280 nM
inhibition (Tubulin (Bos taurus) [7]): 9.9%
inhibition (Tubulin (Bos taurus) [1]): > 100%
Activity (MCF7 [8]): Active
inhibition (Tubulin (Bos taurus) [16]): 59%
GI50 [9]: 280 to 311 nM
GI50 [12]: 366 to 380 nM
GI50 [13]: 1020 nM
GI50 [14]: 214 nM

COc1cc(/C=N\OC[C@H]2C[C@@H]2[C@@H]2C[C@]2(C)CCC(O)c2cccs2)cc(OC)c1OC (stereo not given in full)
GI50 [4]: 980 nM
inhibition (Tubulin (Bos taurus) [1]): 26%
GI50 [9]: 9900 nM
inhibition (Tubulin (Bos taurus) [2]): -1%
inhibition (Tubulin (Bos taurus) [3]): -9%
GI50 [12]: 1200 nM
GI50 [13]: 8800 nM
GI50 [14]: 15000 nM
GI50 [15]: 39000 nM

C=CC[C@@H](CC/C(C)=C/C=C/CC/C=C\[C@@H]1CSC([C@@H]2C[C@@H]2C)=N1)OC [CURACIN A]
GI50 [4]: 96 to 186 nM
inhibition (Tubulin (Bos taurus) [7]): 84.9 to 95%
inhibition (Tubulin (Bos taurus) [1]): 97.9 to 98%
inhibition (Tubulin (Bos taurus) [16]): 96.2 to 97.7%

COc1ccc(OC)c(C(O)CC/C(C)=C/C=C/CC/C=C\c2cc(OC)c(OC)c(OC)c2)c1 (stereo not given)
inhibition (Tubulin (Bos taurus) [7]): 0.7%
inhibition (Tubulin (Bos taurus) [1]): 3.5%
inhibition (Tubulin (Bos taurus) [16]): 20.3%
GI50 [14]: 8730 nM

C=CC[C@@H](CC/C(C)=C/C=C/CC/C=C\c1coc(C(C)(C)C)n1)OC
inhibition (Tubulin (Bos taurus) [2]): 7%
inhibition (Tubulin (Bos taurus) [3]): 7%
GI50 [13]: > 50000 nM
GI50 [15]: > 50000 nM

COc1cc(/C=N\OC/C=C/C=C(\C)CCC(O)c2cccs2)cc(OC)c1OC (stereo not given)
inhibition (Tubulin (Bos taurus) [1]): 100%
inhibition (Tubulin (Bos taurus) [2]): 57%
